Target: T1, human KEAP1 (N-term, residues 321-609) (Homo sapiens, UniProt Q14145)
T1 construct: human KEAP1 (N-term, residues 321-609)
Assay: KEAP1 Kelch Fluorescence Polarization (FP) Assay
Format: binding
Conditions: inhibition of Kelch domain-NRF2 interaction; 2 nM FITC-labelled NRF2 peptide, 25 nM KEAP1, 1 h room temperature; compounds below 10 nM cannot be differentiated
Method: KEAP1 Kelch Fluorescence Polarization (FP) Assay Method
Inhibition of the Kelch domain-NRF2 interaction was determined using a fluorescence polarization-based competition assay in a black 384-well microplate. Compounds were tested at a starting concentration of 10 μM serially diluted 1:3 to generate a 12-point dose response curve on the Biomek FX robot. Each well contained 2 nM FITC-labelled NRF2 peptide (FITC-LDEETGEFL-NH2) and 25 nM human KEAP1 (N-term, residues 321-609) enzyme in a final volume of 20 μL of assay buffer (50 mM Tris-HCl pH 8.0, 100 mM NaCl, 5 mM MgCl2, 0.005% Tween-20, 0.005% BSA, 0.5% DMSO) in the presence of varying concentrations of test compound. Unlabelled peptide (LDEETGEFL-NH2) at 50 μM (negative control) and 0.5% DMSO (positive control) was used to determine the assay window.
After 1 h at room temperature, fluorescence polarization (excitation 470 nm/emission 530 nm) was measured using an Envision plate reader. IC50 values were determined by fitting the data to a four parameter logistic fit using XLfit or XE Runner within ActivityBase. The assay limit is such that compounds below 10 nM cannot be differentiated.

T1 sequence (Q14145 321-609): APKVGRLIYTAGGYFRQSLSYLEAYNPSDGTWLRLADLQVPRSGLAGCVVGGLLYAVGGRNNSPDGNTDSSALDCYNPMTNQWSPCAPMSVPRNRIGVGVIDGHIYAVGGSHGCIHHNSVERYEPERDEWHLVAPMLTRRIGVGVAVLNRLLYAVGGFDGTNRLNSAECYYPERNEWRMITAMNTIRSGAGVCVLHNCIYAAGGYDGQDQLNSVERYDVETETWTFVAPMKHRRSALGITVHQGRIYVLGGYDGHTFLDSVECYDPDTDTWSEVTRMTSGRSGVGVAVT

| SMILES | IC50 [nM] |
| --- | --- |
| CNC(=O)CCCOc1cccc2c1[C@@H](CN1C(=O)c3ccccc3C1=O)N(C(=O)[C@@H]1CCCC[C@@H]1C(=O)NC)CC2 [Example 2, (1S,2R)-2-((S)-1-((1,3-dioxoisoindolin-2-yl)methyl)-8-(4-(methylamino)-4-oxobutoxy)-1,2,3,4-tetrahydroisoguinoline-2-carbonyl)-N-methylcyclohexane-1-carboxamide] | 339 |
| CNC(=O)[C@H]1CCCC[C@H]1C(=O)N1CCc2cccc(OCCNC(=O)c3noc(C)c3C)c2[C@H]1CN1C(=O)c2ccccc2C1=O [Example 4, N-(2-(((S)-1-((1,3-dioxoisoindolin-2-yl)methyl)-2-((1R,2S)-2-(methylcarbamoyl)cyclo-hexane-1-carbonyl)-1,2,3,4-tetrahydroisoquinolin-8-yl)oxy)ethyl)-4,5-dimethylisoxazole-3-carboxamide] | 161 |
| Cc1cc(C(=O)NCCOc2cccc3c2[C@@H](CN2C(=O)c4ccccc4C2=O)N(C(=O)[C@@H]2CCCC[C@@H]2C(=O)NC2CC2)CC3)no1 [Example 7, N-(2-(((S)-2-((1R,2S)-2-(cyclopropylcarbamoyl)cyclohexane-1-carbonyl)-1-((1,3-dioxoisoindolin-2-yl)methyl)-1,2,3,4-tetrahydroisoquinolin-8-yl)oxy)ethyl)-5-methylisoxazole-3-carboxamide] | 196 |
| Cc1cc(C(=O)NCCOc2cccc3c2[C@@H](CN2C(=O)c4ccccc4C2=O)N(C(=O)[C@@H]2CCCC[C@@H]2C(=O)N2CC(O)C2)CC3)no1 [Example 8, N-(2-(((S)-1-((1,3-dioxoisoindolin-2-yl)methyl)-2-((1R,2S)-2-(3-hydroxyazetidine-1-carbonyl)cyclohexane-1-carbonyl)-1,2,3,4-tetrahydroisoquinolin-8-yl)oxy)ethyl)-5-methylisoxazole-3-carboxamide] | 1280 |
| Cc1cc(C(=O)NCCOc2cccc3c2[C@@H](CN2C(=O)c4ccccc4C2=O)N(C(=O)[C@@H]2CCCC[C@@H]2C(=O)NC2CCC2)CC3)no1 [Example 9, N-(2-(((S)-2-((1R,2S)-2-(cyclobutylcarbamoyl)cyclo-hexane-1-carbonyl)-1-((1,3-dioxoisoindolin-2-yl)methyl)-1,2,3,4-tetrahydroisoquinolin-8-yl)oxy)ethyl)-5-methylisoxazole-3-carboxamide] | 119 |
| CNC(=O)[C@H]1CCCC[C@H]1C(=O)N1CCc2cccc(OCCNC(=O)c3nc4ccccc4o3)c2[C@H]1CN1C(=O)c2ccccc2C1=O [Example 11, N-(2-(((S)-1-((1,3-dioxoisoindolin-2-yl)methyl)-2-((1R,2S)-2-(methylcarbamoyl)cyclo-hexane-1-carbonyl)-1,2,3,4-tetrahydroisoquinolin-8-yl)oxy)ethyl)benzo[d] oxazole-2-carboxamide] | 37 |
| CNC(=O)[C@H]1CCCC[C@H]1C(=O)N1CCc2cccc(OCCNC(=O)c3noc4ccccc34)c2[C@H]1CN1C(=O)c2ccccc2C1=O [Example 12, N-(2-(((S)-1-((1,3-dioxoisoindolin-2-yl)methyl)-2-((1R,2S)-2-(methylcarbamoyl)cyclo-hexane-1-carbonyl)-1,2,3,4-tetrahydroisoquinolin-8-yl)oxy)ethyl)benzo[d] isoxazole-3-carboxamide] | 56 |
| CNC(=O)[C@H]1CCCC[C@H]1C(=O)N1CCc2cccc(OCCNS(=O)(=O)c3cnoc3C)c2[C@H]1CN1C(=O)c2ccccc2C1=O [Example 13, (1S,2R)-2-((S)-1-((1,3-dioxoisoindolin-2-yl)methyl)-8-(2-((5-methylisoxazole)-4-sulfonamido)ethoxy)-1,2,3,4-tetrahydroisoquinoline-2-carbonyl)-N-methylcyclohexane-1-carboxamide] | 169 |
| CNC(=O)[C@H]1CCCC[C@H]1C(=O)N1CCc2cccc(OCCNC(=O)c3nccs3)c2[C@H]1CN1C(=O)c2ccccc2C1=O [Example 18, N-(2-(((S)-1-((1,3-dioxoisoindolin-2-yl)methyl)-2-((1R,2S)-2-(methylcarbamoyl)cyclo-hexane-1-carbonyl)-1,2,3,4-tetrahydroisoquinolin-8-yl)oxy)ethyl)thiazole-2-carboxamide] | 119 |
| CNC(=O)C[C@@H](C)C(=O)N1CCc2cccc(O[C@H]3CCN(C(=O)c4cncs4)C3)c2[C@H]1CN1C(=O)c2ccccc2C1=O [Example 25, (R)-4-((S)-1-((1,3-dioxoisoindolin-2-yl)methyl)-8-(((S)-1-(thiazole-5-carbonyl)pyrrolidin-3-yl)oxy)-3,4-dihydroisoquinolin-2(1H)-yl)-N,3-dimethyl-4-oxobutanamide] | 292 |
| CNC(=O)[C@H]1CCCC[C@H]1C(=O)N1CCc2cccc(O[C@H]3CCN(C(=O)c4cncs4)C3)c2[C@H]1CN1CCCC1=O [Example 26, (1S,2R)-N-methyl-2-((S)-1-((2-oxopyrrolidin-1-yl)methyl)-8-(((S)-1-(thiazole-5-carbonyl)pyrrolidin-3-yl)oxy)-1,2,3,4-tetrahydroisoquinoline-2-carbonyl)cyclohexane-1-carboxamide] | 61 |

The next lines start with the values.

| IC50 [nM] | SMILES |
| --- | --- |
| 147 | CNC(=O)[C@H]1CCCC[C@H]1C(=O)N1CCc2cccc(O[C@H]3CCN(C(C)=O)C3)c2[C@H]1CN1C(=O)c2ccccc2C1=O [Example 5, (1S,2R)-2-((S)-8-(((S)-1-acetylpyrrolidin-3-yl)oxy)-1-((1,3-dioxoisoindolin-2-yl)methyl)-1,2,3,4-tetrahydroisoquinoline-2-carbonyl)-N-methylcyclohexane-1-carboxamide] |
| 183 | CNC(=O)[C@H]1CCCC[C@H]1C(=O)N1CCc2cccc(O[C@H]3CCN(C(=O)c4cncnc4)C3)c2[C@H]1CN1C(=O)c2ccccc2C1=O [Example 14, (1S,2R)-2-((S)-1-((1,3-dioxoisoindolin-2-yl)methyl)-8-(((S)-1-(pyrimidine-5-carbonyl)pyrrolidin-3-yl)oxy)-1,2,3,4-tetrahydroisoquinoline-2-carbonyl)-N-methylcyclohexane-1-carboxamide] |
| 93 | CNC(=O)[C@H]1CCCC[C@H]1C(=O)N1CCc2cccc(O[C@H]3CCN(C(=O)c4cccnc4)C3)c2[C@H]1CN1C(=O)c2ccccc2C1=O [Example 15, (1S,2R)-2-((S)-1-((1,3-dioxoisoindolin-2-yl)methyl)-8-(((S)-1-nicotinoylpyrrolidin-3-yl)oxy)-1,2,3,4-tetrahydroisoquinoline-2-carbonyl)-N-methylcyclohexane-1-carboxamide] |
| 366 | CNC(=O)[C@H]1CCCC[C@H]1C(=O)N1CCc2cccc(O[C@H]3CCN(S(=O)(=O)c4cnoc4C)C3)c2[C@H]1CN1C(=O)c2ccccc2C1=O [Example 16, (1S,2R)-2-((S)-1-((1,3-dioxoisoindolin-2-yl)methyl)-8-(((S)-1-((5-methylisoxazol-4-yl)sulfonyl)pyrrolidin-3-yl)oxy)-1,2,3,4-tetrahydroisoquinoline-2-carbonyl)-N-methylcyclohexane-1-carboxamide] |
| 196 | CNC(=O)[C@H]1CCCC[C@H]1C(=O)N1CCc2cccc(O[C@H]3CCN(C(=O)C4CC4)C3)c2[C@H]1CN1C(=O)c2ccccc2C1=O [Example 19, (1S,2R)-2-((S)-8-(((S)-1-(cyclopropanecarbonyl)pyrrolidin-3-yl)oxy)-1-((1,3-dioxoisoindolin-2-yl)methyl)-1,2,3,4-tetrahydroisoquinoline-2-carbonyl)-N-methylcyclohexane-1-carboxamide] |
| 2250 | CNC(=O)[C@H]1CCCC[C@H]1C(=O)N1CCc2cccc(OCc3cnco3)c2[C@H]1CN1C(=O)c2ccccc2C1=O [Example 21, (1S,2R)-2-((S)-1-((1,3-dioxoisoindolin-2-yl)methyl)-8-(oxazol-5-ylmethoxy)-1,2,3,4-tetrahydroisoquinoline-2-carbonyl)-N-methylcyclohexane-1-carboxamide] |
| 32 | CNC(=O)[C@H]1CCCC[C@H]1C(=O)N1CCc2cccc(O[C@H]3CCN(C(=O)c4cnc(C)s4)C3)c2[C@H]1CN1C(=O)c2ccccc2C1=O [Example 22, (1S,2R)-2-((S)-1-((1,3-dioxoisoindolin-2-yl)methyl)-8-(((S)-1-(2-methylthiazole-5-carbonyl)pyrrolidin-3-yl)oxy)-1,2,3,4-tetrahydroisoquinoline-2-carbonyl)-N-methylcyclohexane-1-carboxamide] |
| 606 | CNC(=O)[C@H]1CCCC[C@H]1C(=O)N1CCc2cccc(O[C@H]3CCN(C(=O)c4sc(C)nc4C)C3)c2[C@H]1CN1C(=O)c2ccccc2C1=O [Example 23, (1S,2R)-2-((S)-8-(((S)-1-(2,4-dimethylthiazole-5-carbonyl)pyrrolidin-3-yl)oxy)-1-((1,3-dioxoisoindolin-2-yl)methyl)-1,2,3,4-tetrahydroisoquinoline-2-carbonyl)-N-methylcyclohexane-1-carboxamide] |
| 294 | CNC(=O)[C@H]1CCCC[C@H]1C(=O)N1CCc2cccc(O[C@H]3CCN(C(=O)c4csc(C)n4)C3)c2[C@H]1CN1C(=O)c2ccccc2C1=O [Example 24, (1S,2R)-2-((S)-1-((1,3-dioxoisoindolin-2-yl)methyl)-8-(((S)-1-(2-methylthiazole-4-carbonyl)pyrrolidin-3-yl)oxy)-1,2,3,4-tetrahydroisoquinoline-2-carbonyl)-N-methylcyclohexane-1-carboxamide] |
